From patent US7863416B2, “Nociceptin-based analgesics” (Synvax, Inc., priority 2001, dated 2011)
Numbered stars: 1 amine (or outer) side, 2 acyl side, 3 side chain; on linkers, the order of the positions; unused ones are H or OH. Square brackets hold non-standard residues; d marks the D form. Peptide text beside a SMILES is read from it. * marks the point of attachment. ξ: configuration not given here. Phe(4-NO2) = N[C@@H](Cc1ccc([N+](=O)[O-])cc1)C(=O)O; Trp(5-CN) = N#Cc1ccc2[nH]cc(C[C@H](N)C(=O)O)c2c1; Phe(4-COOH) = N[C@@H](Cc1ccc(C(=O)O)cc1)C(=O)O; Phe(4-CN) = N#Cc1ccc(C[C@H](N)C(=O)O)cc1; Phe(4-F) = N[C@@H](Cc1ccc(F)cc1)C(=O)O; Phe(4-Me) = Cc1ccc(C[C@H](N)C(=O)O)cc1; hPhe = N[C@@H](CCc1ccccc1)C(=O)O; ξNip = O=C(C1CCCN([*:1])C1)[*:2]; ξβ2hAla = CC(CN[*:1])C(=O)[*:2]; Phg = N[C@H](C(=O)O)c1ccccc1; Ac6c = NC1(C(=O)O)CCCCC1; Heptanoyl = CCCCCCC(=O)*; Propionyl = CCC(=O)*; Butyryl = CCCC(=O)*

Experiments:
[1] = molecular target: T1, human ORL1 (Homo sapiens, UniProt P41146); test: Stimulation of [35S]GTPγS binding in membranes of CHO cells transfected with human ORL-1; type: biochemical; settings: for [35S]GTPγS Binding Percent Stimulation: Table 1, relative to nociceptin; for agonist/antagonist character at ORL1: in words; for EC50 ± SEM, stimulation of [35S]GTPγS binding: Table 6; for Emax: read-out: % Stimulation ± SEM of [35S]GTPγS binding
T1 construct: expressed in transfected cells; host or cells: CHO cells (G418-selected)
Procedure: First, CHO cells transfected with human ORL-1 are scraped from tissue culture dishes into 20 mM HEPES, 1 mM EDTA, and then centrifuged at 500×g for 10 minutes. The cells are then re-suspended in this buffer and homogenized using a Polytron Homogenizer.
The cellular homogenate is next centrifuged at 20,000×g for 20 minutes. Following this, the resulting pellet is re-suspended in a buffer containing 20 mM HEPES, 10 mM MgCl2, and 100 mM NaCl, having a resulting pH of 7.4. The suspension is then re-centrifuged at 20,000×g and suspended once more in the above-listed buffer. The pellet may be frozen at −70° C. prior to the final centrifugation. For the binding assay, membranes (10-20 μg protein) are incubated with [^35S]GTPγγS (50 pM), GDP (usually 10 μM), and the desired compound. The total volume of the mixture is 1 ml, which is incubated for 60 min at 25° C.
Following incubation, samples are filtered over glass fiber filters and counted. […]
In these [^35S]GTPγS assays, binding was conducted as described above. EC50 values and percent stimulation were determined using the program Prism.

[2] = molecular target: T1, human ORL1; test: [3H]nociceptin binding to membranes of CHO cells transfected with human ORL1; settings: for Hill Coefficient: Table 5

T1 sequence (P41146 whole entry): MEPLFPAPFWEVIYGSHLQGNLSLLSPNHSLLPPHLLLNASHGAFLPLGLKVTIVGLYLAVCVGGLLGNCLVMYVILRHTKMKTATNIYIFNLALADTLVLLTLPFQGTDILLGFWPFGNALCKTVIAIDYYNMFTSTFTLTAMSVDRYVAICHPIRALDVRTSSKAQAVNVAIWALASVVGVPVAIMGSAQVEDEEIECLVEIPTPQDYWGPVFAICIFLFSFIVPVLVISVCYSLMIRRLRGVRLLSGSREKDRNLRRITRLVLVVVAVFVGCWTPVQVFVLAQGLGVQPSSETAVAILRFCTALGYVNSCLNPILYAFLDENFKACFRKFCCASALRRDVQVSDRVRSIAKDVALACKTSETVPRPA

Row | Molecule | Hill Coefficient [2] | Emax [1] | further results
1 | CCCC(=O)N[C@@H](CCCNC(=N)N)C(=O)N[C@@H](Cc1ccc(O)cc1)C(=O)N[C@@H](Cc1ccc(O)cc1)C(=O)N[C@@H](CCCNC(=N)N)C(=O)N[C@@H](Cc1c[nH]c2ccccc12)C(=O)N[C@@H](CCCNC(=N)N)C(N)=O [IV-15-A, Butryl-RYYRWR-NH2] (Butyryl-RYYRWR-NH2) | – | – | [35S]GTPγS Binding Percent Stimulation [1]: 63%
2 | CCC(=O)N[C@@H](CCCNC(=N)N)C(=O)N[C@@H](Cc1ccc(O)cc1)C(=O)N[C@@H](Cc1ccc(O)cc1)C(=O)N[C@@H](CCCNC(=N)N)C(=O)N[C@@H](Cc1c[nH]c2ccccc12)C(=O)N[C@@H](CCCNC(=N)N)C(N)=O [IV-16-C, Propionyl-RYYRWR-NH2] (Propionyl-RYYRWR-NH2) | – | – | IC50 [2]: 1.2 nM; [35S]GTPγS Binding Percent Stimulation [1]: 82%; agonist/antagonist character at ORL1 [1]: nearly full agonist
3 | CCCCCCC(=O)N[C@@H](CCCNC(=N)N)C(=O)N[C@@H](Cc1ccc(O)cc1)C(=O)N[C@@H](Cc1ccc(O)cc1)C(=O)N[C@@H](CCCNC(=N)N)C(=O)N[C@@H](Cc1c[nH]c2ccccc12)C(=O)N[C@@H](CCCNC(=N)N)C(N)=O [IV-18-C, Heptanoyl-RYYRWR-NH2] (Heptanoyl-RYYRWR-NH2) | – | – | IC50 [2]: 2.6 nM; [35S]GTPγS Binding Percent Stimulation [1]: 54%
4 | N=C(N)NCCC[C@H](NC(=O)[C@H](Cc1c[nH]c2ccccc12)NC(=O)[C@H](CCCNC(=N)N)NC(=O)[C@H](Cc1ccc(O)cc1)NC(=O)[C@H](Cc1ccc(O)cc1)NC(=O)[C@H](CCCNC(=N)N)NC(=O)C1CCCNC1)C(N)=O (stereo partly drawn) [VII-1-A, Nipacotyl-Arg-Tyr-Tyr-Arg-Trp-Arg-NH2] (ξNip-RYYRWR-NH2) | 0.97 | < 20% | EC50 ± SEM, stimulation of [35S]GTPγS binding [1]: FLAT
5 | CC(CN)C(=O)N[C@@H](CCCNC(=N)N)C(=O)N[C@@H](Cc1ccc(O)cc1)C(=O)N[C@@H](Cc1ccc(O)cc1)C(=O)N[C@@H](CCCNC(=N)N)C(=O)N[C@@H](Cc1c[nH]c2ccccc12)C(=O)N[C@@H](CCCNC(=N)N)C(N)=O (stereo partly drawn) [VII-3-A, β-aminoisobutryl-Arg-Tyr-Tyr-Arg-Trp-Arg-NH2] (ξβ2hAla-RYYRWR-NH2) | 0.72 | 29.1 ± 1.9% | –
6 | N=C(N)NCCC[C@H](NC(=O)[C@H](Cc1c[nH]c2ccccc12)NC(=O)[C@H](CCCNC(=N)N)NC(=O)[C@H](Cc1ccc(O)cc1)NC(=O)[C@H](Cc1ccc(O)cc1)NC(=O)[C@H](CCCNC(=N)N)NC(=O)C1(N)CCCCC1)C(N)=O [VII-4-B, 1-aminocyclohexanoyl-Arg-Tyr-Tyr-Arg-Trp-Arg-NH2] (H-[Ac6c]RYYRWR-NH2) | 1.0 | < 20% | EC50 ± SEM, stimulation of [35S]GTPγS binding [1]: FLAT
7 | CC(=O)N[C@@H](CCCNC(=N)N)C(=O)N[C@H](C(=O)N[C@H](C(=O)N[C@@H](CCCNC(=N)N)C(=O)N[C@@H](Cc1c[nH]c2ccccc12)C(=O)N[C@@H](CCCNC(=N)N)C(N)=O)c1ccccc1)c1ccccc1 [VII-11-B, Ac-Arg-Phg-Phg-Arg-Trp-Arg-NH2] (Ac-R[Phg][Phg]RWR-NH2) | 0.93 | – | –
8 | CC(=O)N[C@@H](CCCNC(=N)N)C(=O)N[C@@H](Cc1ccc(O)cc1)C(=O)N[C@H](C(=O)N[C@@H](CCCNC(=N)N)C(=O)N[C@@H](Cc1c[nH]c2ccccc12)C(=O)N[C@@H](CCCNC(=N)N)C(N)=O)c1ccccc1 [VII-13-B, Ac-Arg-Tyr-Phg-Arg-Trp-Arg-NH2] (Ac-RY[Phg]RWR-NH2) | 0.73 | – | –
9 | CC(=O)N[C@@H](CCCNC(=N)N)C(=O)N[C@@H](Cc1ccc(C)cc1)C(=O)N[C@@H](Cc1ccc(O)cc1)C(=O)N[C@@H](CCCNC(=N)N)C(=O)N[C@@H](Cc1c[nH]c2ccccc12)C(=O)N[C@@H](CCCNC(=N)N)C(N)=O [VII-15-B, Ac-Arg-Phe(4-Me)-Tyr-Arg-Trp-Arg-NH2] (Ac-R[Phe(4-Me)]YRWR-NH2) | 0.79 | 59.8 ± 16.2% | –
10 | CC(=O)N[C@@H](CCCNC(=N)N)C(=O)N[C@@H](Cc1ccc(C)cc1)C(=O)N[C@@H](Cc1ccc(C)cc1)C(=O)N[C@@H](CCCNC(=N)N)C(=O)N[C@@H](Cc1c[nH]c2ccccc12)C(=O)N[C@@H](CCCNC(=N)N)C(N)=O [VII-17-B, Ac-Arg-Phe(4-Me)-Phe(4-Me)-Arg-Trp-Arg-NH2] (Ac-R[Phe(4-Me)][Phe(4-Me)]RWR-NH2) | 1.06 | < 20% | EC50 ± SEM, stimulation of [35S]GTPγS binding [1]: FLAT
11 | CC(=O)N[C@@H](CCCNC(=N)N)C(=O)N[C@@H](Cc1ccc(C(=O)O)cc1)C(=O)N[C@@H](Cc1ccc(O)cc1)C(=O)N[C@@H](CCCNC(=N)N)C(=O)N[C@@H](Cc1c[nH]c2ccccc12)C(=O)N[C@@H](CCCNC(=N)N)C(N)=O [VII-19-B, Ac-Arg-Phe(4-COOH)-Tyr-Arg-Trp-Arg-NH2] (Ac-R[Phe(4-COOH)]YRWR-NH2) | 1.0 | 45.5 ± 8% | –
12 | CC(=O)N[C@@H](CCCNC(=N)N)C(=O)N[C@@H](Cc1ccc([N+](=O)[O-])cc1)C(=O)N[C@@H](Cc1ccc(O)cc1)C(=O)N[C@@H](CCCNC(=N)N)C(=O)N[C@@H](Cc1c[nH]c2ccccc12)C(=O)N[C@@H](CCCNC(=N)N)C(N)=O [VII-23-B, Ac-Arg-Phe(NO2)-Tyr-Arg-Trp-Arg-NH2] (Ac-R[Phe(4-NO2)]YRWR-NH2) | 0.74 | 56.6 ± 20.4% | –
13 | CC(=O)N[C@@H](CCCNC(=N)N)C(=O)N[C@@H](Cc1ccc(F)cc1)C(=O)N[C@@H](Cc1ccc(O)cc1)C(=O)N[C@@H](CCCNC(=N)N)C(=O)N[C@@H](Cc1c[nH]c2ccccc12)C(=O)N[C@@H](CCCNC(=N)N)C(N)=O [VII-31-B, Ac-Arg-Phe(4-F)-Tyr-Arg-Trp-Arg-NH2] (Ac-R[Phe(4-F)]YRWR-NH2) | 0.81 | 54.4 ± 1.2% | –
14 | CC(=O)N[C@@H](CCCNC(=N)N)C(=O)N[C@@H](Cc1ccc(F)cc1)C(=O)N[C@@H](Cc1ccc(F)cc1)C(=O)N[C@@H](CCCNC(=N)N)C(=O)N[C@@H](Cc1c[nH]c2ccccc12)C(=O)N[C@@H](CCCNC(=N)N)C(N)=O [VII-33-B, Ac-Arg-Phe(4-F)-Phe(4-F)-Arg-Trp-Arg-NH2] (Ac-R[Phe(4-F)][Phe(4-F)]RWR-NH2) | 0.89 | < 20% | EC50 ± SEM, stimulation of [35S]GTPγS binding [1]: FLAT
15 | COc1ccc(C[C@H](NC(=O)[C@H](CCCNC(=N)N)NC(C)=O)C(=O)N[C@@H](Cc2ccc(O)cc2)C(=O)N[C@@H](CCCNC(=N)N)C(=O)N[C@@H](Cc2c[nH]c3ccccc23)C(=O)N[C@@H](CCCNC(=N)N)C(N)=O)cc1 [VII-35-C, Ac-Arg-Tyr(4-Me)-Tyr-Arg-Trp-Arg-NH2] (Ac-RY(Me)YRWR-NH2) | 0.75 | 52.1 ± 0.6% | –
16 | COc1ccc(C[C@H](NC(=O)[C@H](CCCNC(=N)N)NC(C)=O)C(=O)N[C@@H](Cc2ccc(OC)cc2)C(=O)N[C@@H](CCCNC(=N)N)C(=O)N[C@@H](Cc2c[nH]c3ccccc23)C(=O)N[C@@H](CCCNC(=N)N)C(N)=O)cc1 [VII-37-B, Ac-Arg-Tyr(4-Me)-Tyr(4-Me)-Arg-Trp-Arg-NH2] (Ac-RY(Me)Y(Me)RWR-NH2) | 0.82 | < 20% | EC50 ± SEM, stimulation of [35S]GTPγS binding [1]: FLAT
17 | CC(=O)N[C@@H](CCCNC(=N)N)C(=O)N[C@@H](Cc1ccc(C#N)cc1)C(=O)N[C@@H](Cc1ccc(O)cc1)C(=O)N[C@@H](CCCNC(=N)N)C(=O)N[C@@H](Cc1c[nH]c2ccccc12)C(=O)N[C@@H](CCCNC(=N)N)C(N)=O [VII-43-C, Ac-Arg-Phe(4-CN)-Tyr-Arg-Trp-Arg-NH2] (Ac-R[Phe(4-CN)]YRWR-NH2) | 0.73 | 49.7 ± 6.6% | agonist/antagonist character at ORL1 [1]: partial agonist
18 | CC(=O)N[C@@H](CCCNC(=N)N)C(=O)N[C@@H](CCc1ccccc1)C(=O)N[C@@H](CCc1ccccc1)C(=O)N[C@@H](CCCNC(=N)N)C(=O)N[C@@H](Cc1c[nH]c2ccccc12)C(=O)N[C@@H](CCCNC(=N)N)C(N)=O [VII-49-B, Ac-Arg-hPhe-hPhe-Arg-Trp-Arg-NH2] (Ac-R[hPhe][hPhe]RWR-NH2) | 0.94 | < 20% | EC50 ± SEM, stimulation of [35S]GTPγS binding [1]: FLAT
19 | CC(=O)N[C@@H](CCCNC(=N)N)C(=O)N[C@@H](Cc1ccc(O)cc1)C(=O)N[C@@H](Cc1ccc(O)cc1)C(=O)N[C@@H](CCCNC(=N)N)C(=O)N[C@@H](Cc1c[nH]c2ccc(C#N)cc12)C(=O)N[C@@H](CCCNC(=N)N)C(N)=O [VII-51-A, Ac-Arg-Tyr-Tyr-Arg-Trp(5-CN)-Arg-NH2] (Ac-RYYR[Trp(5-CN)]R-NH2) | 0.7 | 49.1 ± 0.19% | Ki [2]: 0.3 ± 0.133 nM
20 | Ac-Arg-Phe(SO3H)-Tyr-Arg-Trp-Arg-NH2 (Ac-R[Phe(SO3H)]YRWR-NH2) [VII-27-B] | 1.12 | – | –
21 | Ac-RYYRWR-NH2 [Ac-RYYRWR-NH2] [listing 1 of 2 here] | – | – | EC50 [1]: 1.2 nM
22 | Ac-RYYRWR-NH2 [Ac-RYYRWR-NH2] [listing 2 of 2 here] | – | – | [35S]GTPγS Binding Percent Stimulation [1]: 100%
